Drawing on PubChem BioAssay (NCI), this text covers TGI for 8 compounds.

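96-well plates; 48 h exposure; 5 concentrations. Endpoints by linear interpolation between flanking doses. Not reached: highest tested concentration assigned. TGI: concentration producing complete growth inhibition.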 Some results are limits rather than exact numbers.

Some test systems named below: BT-549 breast; M14 melanoma; A549 NSCLC; UO-31 renal; SNB-75 CNS; A498 renal; CAKI-1 renal; RXF 393 renal; IGROV1 ovarian; K-562 leukemia; HCT-15 colon; HT29 colon; 786-0 renal; MCF7 breast; RPMI-8226 leukemia; HOP-92 NSCLC; SK-MEL-28 melanoma; U251 CNS; LOX IMVI melanoma; MDA-MB-435.
Holding throughout (experiment): NCI-60 cell line screen, 48 h

For the compound `CCOC(=O)c1c(NC(=O)c2cccs2)sc2c1CCC2`, the TGI was greater than 100 µM in the experiment with BT-549 breast; greater than 100 µM with M14 melanoma; greater than 100 µM in the experiment with A549 NSCLC; greater than 100 µM in the experiment on UO-31 renal; 26.2 µM with SNB-75 CNS; greater than 100 µM in the experiment on A498 renal. The TGI with CAKI-1 renal, in the experiment on RXF 393 renal, in the experiment on IGROV1 ovarian, with K-562 leukemia, with HCT-15 colon and with HT29 colon was greater than 100 µM in each case. Moreover, the TGI in the experiment on 786-0 renal, with MCF7 breast and with RPMI-8226 leukemia was greater than 100 µM in each case.

As for `CCOC(=O)N(NC(=O)NC(C)C)c1ccccc1`, the TGI with BT-549 breast, with M14 melanoma, in the experiment on HOP-92 NSCLC, in the experiment on SK-MEL-28 melanoma, in the experiment with U251 CNS and with A549 NSCLC was greater than 100 µM throughout. For the same compound, the TGI in the experiment on UO-31 renal, in the experiment on SNB-75 CNS, in the experiment on A498 renal, in the experiment with CAKI-1 renal, with RXF 393 renal and in the experiment with IGROV1 ovarian was greater than 100 µM each time. The TGI in the experiment on K-562 leukemia, in the experiment with HCT-15 colon, in the experiment with LOX IMVI melanoma, in the experiment on HT29 colon, with 786-0 renal and in the experiment with MCF7 breast was greater than 100 µM each time.

Regarding `O=c1[nH]c(=O)n(CCOc2ccccc2)cc1Nc1ccccc1`, the TGI in the experiment on M14 melanoma, with HOP-92 NSCLC, in the experiment on SK-MEL-28 melanoma, in the experiment with U251 CNS, in the experiment on A549 NSCLC and with UO-31 renal was greater than 100 µM each time. The TGI with A498 renal, in the experiment with CAKI-1 renal, in the experiment with RXF 393 renal, in the experiment on IGROV1 ovarian, with K-562 leukemia and with HCT-15 colon was greater than 100 µM in each case. The TGI in the experiment with LOX IMVI melanoma, with HT29 colon, with 786-0 renal, in the experiment on MDA-MB-435, with MCF7 breast and with RPMI-8226 leukemia was greater than 100 µM each time.

For the compound `O=c1c2ccccc2[nH]c2c(Cl)cc(Cl)c(NC3CCCCC3)c12`, the TGI with BT-549 breast was 67.3 µM; with M14 melanoma, 47.7 µM; with SK-MEL-28 melanoma it was greater than 100 µM; in the experiment with U251 CNS, 36.9 µM; in the experiment with A549 NSCLC, greater than 100 µM; with UO-31 renal it was 33.5 µM. The TGI was 83.6 µM in the experiment on SNB-75 CNS; 43.3 µM with A498 renal; 83.2 µM in the experiment on CAKI-1 renal; 96.2 µM with IGROV1 ovarian; greater than 100 µM in the experiment on K-562 leukemia; greater than 100 µM in the experiment on HCT-15 colon. Besides, the TGI with LOX IMVI melanoma was greater than 100 µM; with HT29 colon, 30.6 µM; in the experiment with 786-0 renal, greater than 100 µM; in the experiment with MDA-MB-435 it was 43.5 µM; in the experiment on MCF7 breast, 76.2 µM; in the experiment with RPMI-8226 leukemia, 85 µM.

Consider `Cc1c(C)c(C)n(C2OC(CO)C(O)C(O)C2O)c(=S)c1C#N` (stereo unspecified), for which the TGI in the experiment with M14 melanoma, in the experiment on HOP-92 NSCLC, with SK-MEL-28 melanoma, in the experiment on U251 CNS, with A549 NSCLC and in the experiment with UO-31 renal was greater than 100 µM in each case. For the same compound, the TGI in the experiment with SNB-75 CNS, with A498 renal, with RXF 393 renal, in the experiment on IGROV1 ovarian, with K-562 leukemia and in the experiment on HCT-15 colon was greater than 100 µM each time. For the same compound, the TGI in the experiment with LOX IMVI melanoma, with HT29 colon, with 786-0 renal, in the experiment with MDA-MB-435 and in the experiment with MCF7 breast was greater than 100 µM throughout.

For `COC(=O)c1cc2c(cc1CC1Cc3cc4c(cc3C1=O)CCC4)CCC2` (stereo unspecified), the TGI with BT-549 breast, with M14 melanoma, in the experiment with SK-MEL-28 melanoma, in the experiment on U251 CNS, in the experiment with A549 NSCLC and with UO-31 renal was greater than 100 µM throughout. The TGI with SNB-75 CNS, in the experiment on A498 renal, with CAKI-1 renal, in the experiment on IGROV1 ovarian, with K-562 leukemia and in the experiment on HCT-15 colon was greater than 100 µM each time. Also, the TGI with LOX IMVI melanoma, with HT29 colon, with 786-0 renal, with MDA-MB-435, in the experiment with MCF7 breast and in the experiment on RPMI-8226 leukemia was greater than 100 µM each time.

With `Nc1cccnc1NCC1(CO)CCCC1`, the TGI in the experiment on BT-549 breast, with SK-MEL-28 melanoma, with U251 CNS, with A549 NSCLC, in the experiment on UO-31 renal and in the experiment on SNB-75 CNS was greater than 100 µM each time. The TGI in the experiment on A498 renal, with CAKI-1 renal, in the experiment with RXF 393 renal, with IGROV1 ovarian, in the experiment on K-562 leukemia and with HCT-15 colon was greater than 100 µM throughout. For the same compound, the TGI in the experiment on LOX IMVI melanoma, in the experiment on HT29 colon, in the experiment with 786-0 renal, in the experiment with MDA-MB-435, in the experiment with MCF7 breast and with RPMI-8226 leukemia was greater than 100 µM each time.

Take `Cc1cc2c(cc1C(=O)CCC(=O)O)CC1(C2)Cc2cc(C)c(C(=O)CCC(=O)O)cc2C1`: the TGI with M14 melanoma, with HOP-92 NSCLC, in the experiment with SK-MEL-28 melanoma, in the experiment on U251 CNS, in the experiment on A549 NSCLC and in the experiment on UO-31 renal was greater than 100 µM throughout. The TGI in the experiment with SNB-75 CNS, in the experiment on A498 renal, with CAKI-1 renal, in the experiment with RXF 393 renal, in the experiment with IGROV1 ovarian and in the experiment with K-562 leukemia was greater than 100 µM throughout. The TGI in the experiment with HCT-15 colon, with LOX IMVI melanoma, with HT29 colon, in the experiment on 786-0 renal, in the experiment on MDA-MB-435 and in the experiment on MCF7 breast was greater than 100 µM in each case. Moreover, in the experiment with RPMI-8226 leukemia, the TGI is greater than 100 µM.
